Source: US20200337310A1, “Herbicidal Combinations” (UPL LTD, priority 2018, published 2020)

Columns and labels:
Assay in all cases: Field trial, weed control burn down symptoms at 5 DAT
Conditions in all cases: field trial India, glufosinate ammonium 400, carfentrazone 10, imazethapyr 100 gm/ha
Parthenium hysterophorus = test system: Parthenium hysterophorus
Trianthema monogyna = test system: Trianthema monogyna
Dinebra retroflexa = test system: Dinebra retroflexa
Cyprus spp = test system: Cyprus spp

CP(=O)(O)CCC(N)C(=O)O (racemic) [Glufosinate ammonium, (2RS)-2-amino-4-[hydroxy(methyl)phosphinoyl]butyric acid]
% Weed control Burn Down Symptoms Generation, Parthenium hysterophorus, Actual (Parthenium hysterophorus): 30% | % Weed control Burn Down Symptoms Generation, Trianthema monogyna, Actual (Trianthema monogyna): 25% | % Weed control Burn Down Symptoms Generation, Dinebra retroflexa, Actual (Dinebra retroflexa): 15% | % Weed control Burn Down Symptoms Generation, Cyprus spp, Actual (Cyprus spp): 5%

CCc1cnc(C2=NC(C)(C(C)C)C(=O)N2)c(C(=O)O)c1 (racemic) [Imazethapyr, 5-ethyl-2-[(RS)-4-isopropyl-4-methyl-5-oxo-2-imidazolin-2-yl]nicotinic acid]
% Weed control Burn Down Symptoms Generation, Parthenium hysterophorus, Actual (Parthenium hysterophorus): 5% | % Weed control Burn Down Symptoms Generation, Trianthema monogyna, Actual (Trianthema monogyna): 10% | % Weed control Burn Down Symptoms Generation, Dinebra retroflexa, Actual (Dinebra retroflexa): 0% | % Weed control Burn Down Symptoms Generation, Cyprus spp, Actual (Cyprus spp): 00%

CCOC(=O)C(Cl)Cc1cc(-n2nc(C)n(C(F)F)c2=O)c(F)cc1Cl (racemic) [Carfentrazone, ethyl (RS)-2-chloro-3-{2-chloro-5-[4-(difluoromethyl)-4,5-dihydro-3-methyl-5-oxo-1H-1,2,4-triazol-1-yl]-4-fluorophenyl}propionate]
% Weed control Burn Down Symptoms Generation, Parthenium hysterophorus, Actual (Parthenium hysterophorus): 5% | % Weed control Burn Down Symptoms Generation, Trianthema monogyna, Actual (Trianthema monogyna): 70% | % Weed control Burn Down Symptoms Generation, Dinebra retroflexa, Actual (Dinebra retroflexa): 0% | % Weed control Burn Down Symptoms Generation, Cyprus spp, Actual (Cyprus spp): 60%
